Reference: paper PMC6214618, “Multimodal Ligand Binding Studies of Human and Mouse G-Coupled Taste Receptors to Correlate Their Species-Specific Sweetness Tasting Properties” (Molecules : A Journal of Synthetic Chemistry and Natural …, 2018)
Peptide text beside a SMILES is read from it.

How the values were obtained:
human T1R2 ATD [1] = biological target: T1, human T1R2 ATD (Homo sapiens, UniProt Q8TE23); test: Circular dichroism (CD) spectroscopy of ligand binding, human T1R2 ATD; conditions: for Kd: measured by CD, 25 °C, 4.5 μM ATD protein, nonlinear regression at fixed wavelength; for change in CD profile / ellipticity upon ligand addition: His-hT1R2 ATD, 209 and 219 nm
T1 construct: or Ser25-Thr489 in the 8xHis-Tag; made in house
T1 sequence (Q8TE23 25-489): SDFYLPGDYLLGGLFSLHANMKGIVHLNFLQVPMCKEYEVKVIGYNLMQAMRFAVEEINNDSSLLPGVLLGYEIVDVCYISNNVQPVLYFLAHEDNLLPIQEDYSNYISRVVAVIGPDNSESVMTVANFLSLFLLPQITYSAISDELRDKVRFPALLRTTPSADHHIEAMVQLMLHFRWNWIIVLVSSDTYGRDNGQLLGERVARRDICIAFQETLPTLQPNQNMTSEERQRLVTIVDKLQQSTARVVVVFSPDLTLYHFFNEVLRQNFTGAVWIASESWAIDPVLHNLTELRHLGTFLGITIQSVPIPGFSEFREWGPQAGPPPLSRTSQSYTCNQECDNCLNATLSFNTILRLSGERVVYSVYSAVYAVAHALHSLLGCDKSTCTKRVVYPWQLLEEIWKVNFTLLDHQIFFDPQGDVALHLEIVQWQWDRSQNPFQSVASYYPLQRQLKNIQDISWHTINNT
Method: CD spectra were recorded at 25 °C on an Model 202SF circular dichroism spectrometer (Aviv, Lakewood, NY, USA) equipped with a Peltier temperature control. Samples were added to a 0.01 cm path length quartz cuvette with a concentration of the ATD (from human and mouse) of about 0.3 mg/mL (4.5 μM) in 10 mM Tris-HCl, 150 mM NaCl, 10% glycerol, pH 7.4. Data was collected every 1 nm with an averaging time of 5 s. The spectral bandwidth was 1 nm. Spectra were corrected for buffer and ligands contributions and converted to mean ellipticity in deg cm^2·dmol^−1. The content of α-helix was computed using the deconvolution program from Chen et al.. […] The KD was calculated by analyzing CD data at a fixed wavelength versus ligand concentration using a nonlinear regression method (see Table 1). MSG was used as a negative control.

human T1R2 ATD [2] = biological target: T2, human T1R2 ATD (Homo sapiens, UniProt Q8TE23); test: Saturation transfer difference NMR (STD-NMR) binding assay; conditions: neotame 3–10 mM at 27 °C; MSG at 7–37 °C
T2 construct: The human constructs ranged from residues Asn24-Met494 for human (ATD-hT1R2) in the SUMO fusion; His (N); TEV cleavage site (N); made in house
T2 sequence (Q8TE23 24-494): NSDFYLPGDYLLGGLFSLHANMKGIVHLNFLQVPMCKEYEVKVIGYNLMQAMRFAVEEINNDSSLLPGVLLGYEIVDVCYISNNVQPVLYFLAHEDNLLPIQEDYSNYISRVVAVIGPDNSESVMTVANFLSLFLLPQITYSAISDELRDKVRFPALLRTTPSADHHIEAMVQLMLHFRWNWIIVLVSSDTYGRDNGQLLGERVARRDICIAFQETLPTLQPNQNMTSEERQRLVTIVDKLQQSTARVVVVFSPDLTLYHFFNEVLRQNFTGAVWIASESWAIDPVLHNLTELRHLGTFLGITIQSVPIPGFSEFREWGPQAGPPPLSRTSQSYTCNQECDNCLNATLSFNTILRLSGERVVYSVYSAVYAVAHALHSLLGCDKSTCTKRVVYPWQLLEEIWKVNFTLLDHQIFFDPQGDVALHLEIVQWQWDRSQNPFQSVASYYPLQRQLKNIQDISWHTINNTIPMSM
Method: The ligand binding activity of ATD-T1R2 for all ligands was confirmed with a NMR-STD binding assay as previously described. Aliquots of the pure labeled SUMO-T1R2 protein were incubated with desired titrating ligands at 0.5–20 fold molar excess and concentrated to a final concentration of ~0.05 mM in 10 mM phosphate buffer (pH 7.4) containing 150 mM NaCl, 2.7 mM KCl, 5 mM DTT, 5x protease inhibitor (Roche) and 0.05% NaN3. Monosodium glutamate (MSG, non-sweet molecule) was used as a negative control. NMR data were collected on a VNMRS spectrometer (Varian, Palo Alto, CA, USA) operating at 800 MHz and equipped with a cryogenic probe. STD-NMR data collection and analysis was carried out as previously described.

human T1R2 ATD [3] = biological target: T1, human T1R2 ATD; test: Intrinsic fluorescence spectroscopy, human T1R2 ATD; type: binding; conditions: excitation 280 nm; for change in intrinsic fluorescence intensity: human T1R2 ATD, ligand 0–64 μM
Method: (§1) Samples were prepared in the same way as for the CD experiments. Experiments were performed at 25 °C on Carey Eclipse instrument (Agilent, Santa Clara, CA, USA). Spectra were subtracted from the buffer ± ligand backgrounds for presentation. The curves at 340 nm were the best fits of the data obtained by a regression method using Microsoft Excel software (Microsoft, Redmont, WA, USA).

mouse T1R2 ATD [4] = biological target: T3, mouse T1R2 ATD (Mus musculus, UniProt Q925I4); test: Circular dichroism (CD) spectroscopy of ligand binding, mouse T1R2 ATD; conditions: mouse His-T1R2 ATD, saturating concentrations (neotame up to 500 μM)
T3 construct: The mouse 8xHis-Tev-ATD-mT1R2 construct ranged from residues Gly2-Pro466; made in house
T3 sequence (Q925I4 2-465 limits assumed): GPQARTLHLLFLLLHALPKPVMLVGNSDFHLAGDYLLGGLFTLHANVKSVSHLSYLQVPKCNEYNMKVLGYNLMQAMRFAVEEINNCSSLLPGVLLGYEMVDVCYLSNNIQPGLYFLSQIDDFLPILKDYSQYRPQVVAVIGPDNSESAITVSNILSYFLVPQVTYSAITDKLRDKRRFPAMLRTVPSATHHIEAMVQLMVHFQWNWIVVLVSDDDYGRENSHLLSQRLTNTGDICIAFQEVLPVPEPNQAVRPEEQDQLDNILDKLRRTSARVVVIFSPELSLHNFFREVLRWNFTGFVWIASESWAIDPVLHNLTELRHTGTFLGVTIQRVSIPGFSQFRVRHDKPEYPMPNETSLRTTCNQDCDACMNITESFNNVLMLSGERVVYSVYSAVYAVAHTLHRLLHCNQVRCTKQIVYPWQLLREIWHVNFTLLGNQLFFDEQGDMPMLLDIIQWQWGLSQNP
Method: Data was collected every 1 nm with an averaging time of 5 s. The spectral bandwidth was 1 nm. Spectra were corrected for buffer and ligands contributions and converted to mean ellipticity in deg cm^2·dmol^−1. The content of α-helix was computed using the deconvolution program from Chen et al.. […] The KD was calculated by analyzing CD data at a fixed wavelength versus ligand concentration using a nonlinear regression method (see Table 1). MSG was used as a negative control.

mouse T1R2 ATD [5] = biological target: T3, mouse T1R2 ATD; test: Intrinsic fluorescence spectroscopy, mouse T1R2 ATD; type: binding; conditions: excitation 280 nm
Method: as §1

SMILES	Kd (human T1R2 ATD [1]) [µM]	EC50 (human T1R2 ATD [3]; h-T1R2 ATD, signal at 336 nm, read-out: ligand concentration at half of the maximal value of fluorescence change) [µM]	EC50 (mouse T1R2 ATD [5]; signal at 336 nm, read-out: half-maximal value of fluorescence intensity decrease) [µM]	STD signal / binding (human T1R2 ATD [2])	change in intrinsic fluorescence intensity (human T1R2 ATD [3])	change in CD profile / ellipticity upon ligand addition (human T1R2 ATD [1])	change in ellipticity upon ligand addition (mouse T1R2 ATD [4])	change in intrinsic fluorescence intensity (mouse T1R2 ATD [5])
CC1=CC(=O)NS(=O)(=O)O1 [Acetasulfame]	100							
COC(=O)[C@H](Cc1ccccc1)NC(=O)[C@@H](N)CC(=O)O [Aspartame] (HELM PEPTIDE1{D.F.[CO[*:1]]}$$$$V2.0)	> 300							
N[C@H](Cc1c[nH]c2ccccc12)C(=O)O [D-Tryptophan]	500							
N[C@@H](CCC(=O)O)C(=O)[O-].[Na+] [MSG, monosodium glutamate]				no STD signal	no change in intrinsic fluorescence intensity	no change	no change in ellipticity	did not change the intrinsic fluorescence intensity

Continued, in another order:

Kd (human T1R2 ATD [1]) [µM]	EC50 (human T1R2 ATD [3]; h-T1R2 ATD, signal at 336 nm, read-out: ligand concentration at half of the maximal value of fluorescence change) [µM]	EC50 (mouse T1R2 ATD [5]; signal at 336 nm, read-out: half-maximal value of fluorescence intensity decrease) [µM]	SMILES	STD signal / binding (human T1R2 ATD [2])	change in intrinsic fluorescence intensity (human T1R2 ATD [3])	change in CD profile / ellipticity upon ligand addition (human T1R2 ATD [1])	change in ellipticity upon ligand addition (mouse T1R2 ATD [4])	change in intrinsic fluorescence intensity (mouse T1R2 ATD [5])
40	5		OC[C@H]1O[C@H](O[C@]2(CCl)O[C@H](CCl)[C@@H](O)[C@@H]2O)[C@H](O)[C@@H](O)[C@H]1Cl [Sucralose]		decreasing fluorescence intensity			
40		8	OC[C@H]1O[C@@](CO)(O[C@H]2O[C@H](CO)[C@@H](O)[C@H](O)[C@H]2O)[C@@H](O)[C@@H]1O [Sucrose]		did not change the fluorescence intensity	small decrease in ellipticity	small decrease in ellipticity	decrease in the fluorescence intensity
